Data: ChEMBL document CHEMBL5518224, “Rational Design of PARP1/c-Met Dual Inhibitors for Overcoming PARP1 Inhibitor Resistance Induced by c-Met Overexpression” (J Med Chem, 2024)
pKi: −log10 of the molar value.

How the values were obtained:
[1] = molecular target: Hepatocyte growth factor receptor (Homo sapiens, UniProt P08581); test: Inhibition of c-Met (unknown origin)
[2] = Half life in male SPF-ICR mouse at 10 mg/kg, ip measured upto 24 hrs by LC-MS/MS analysis; type: ADME, organism-based; conditions: in vivo
[3] = Tmax in male SPF-ICR mouse at 10 mg/kg, ip measured upto 24 hrs by LC-MS/MS analysis; type: ADME, organism-based; conditions: in vivo
[4] = Cmax in male SPF-ICR mouse at 10 mg/kg, ip measured upto 24 hrs by LC-MS/MS analysis; type: ADME, organism-based; conditions: in vivo
[5] = AUC (0 to t) in male SPF-ICR mouse at 10 mg/kg, ip measured upto 24 hrs by LC-MS/MS analysis; type: ADME, organism-based; conditions: in vivo
[6] = AUC (0 to infinity) in male SPF-ICR mouse at 10 mg/kg, ip measured upto 24 hrs by LC-MS/MS analysis; type: ADME, organism-based; conditions: in vivo
[7] = MRT (0 to t) in male SPF-ICR mouse at 10 mg/kg, ip measured upto 24 hrs by LC-MS/MS analysis; type: ADME, organism-based; conditions: in vivo
[8] = MRT (0 to infinity) in male SPF-ICR mouse at 10 mg/kg, ip measured upto 24 hrs by LC-MS/MS analysis; type: ADME, organism-based; conditions: in vivo
[9] = Clearance in male SPF-ICR mouse at 10 mg/kg, ip measured upto 24 hrs by LC-MS/MS analysis; type: ADME, organism-based; conditions: in vivo
MDA-MB-231 [10] = test: Antitumor activity against human MDA-MB-231 cells xenografted in female Balb/c nude mouse assessed as tumor growth inhibition at 12.5 mg/kg/day, ip qd administered for 28 days relative to control; type: functional; conditions: MDA-MB-231, 672 h, time 28 day, read-out: TGI
MDA-MB-231 [11] = test: Antitumor activity against human MDA-MB-231 cells xenografted in female Balb/c nude mouse assessed as tumor growth inhibition at 25 mg/kg/day, ip qd administered for 28 days relative to control; type: functional; conditions: MDA-MB-231, 672 h, time 28 day, read-out: TGI
MDA-MB-231 [12] = test: Antitumor activity against human MDA-MB-231 cells xenografted in female Balb/c nude mouse assessed as tumor growth inhibition at 50 mg/kg/day, ip qd administered for 28 days relative to control; type: functional; conditions: Mus musculus, MDA-MB-231, 672 h, time 28 day, read-out: TGI
[13] = test system: Olaparib-resistant HCT116; test: Antitumor activity against human Olaparib-resistant HCT116 cells xenografted in female Balb/c nude mouse assessed as tumor growth inhibition at 5 mg/kg/day, iv qd administered for 21 days relative to control; type: functional; conditions: Olaparib-resistant HCT116, 504 h, time 21 day, read-out: TGI
[14] = test system: Olaparib-resistant HCT116; test: Antitumor activity against human Olaparib-resistant HCT116 cells xenografted in female Balb/c nude mouse assessed as tumor growth inhibition at 25 mg/kg/day, ip qd administered for 21 days relative to control; type: functional; conditions: Olaparib-resistant HCT116, 504 h, time 21 day, read-out: TGI
[15] = test system: Olaparib-resistant HCT116; test: Antitumor activity against human Olaparib-resistant HCT116 cells xenografted in female Balb/c nude mouse assessed as tumor growth inhibition at 50 mg/kg/day, ip qd administered for 21 days relative to control; type: functional; conditions: Mus musculus, Olaparib-resistant HCT116, 504 h, time 21 day, read-out: TGI
[16] = test system: Olaparib-resistant HCT116; test: Antitumor activity against human Olaparib-resistant HCT116 cells xenografted in female Balb/c nude mouse assessed as tumor growth inhibition at 100 mg/kg/day, ip qd administered for 21 days relative to control; type: functional; conditions: Olaparib-resistant HCT116, 504 h, time 21 day, read-out: TGI
[17] = Toxicity in female Balb/c nude mouse xenografted with human MDA-MB-231 cells assessed as body weight loss at 12.5 to 50 mg/kg, ip qd administered for 28 days; type: organism-based; conditions: in vivo, 672 h, dose 12.5-50 mg/kg, time 28 day
[18] = Toxicity in female Balb/c nude mouse xenografted with human MDA-MB-231 cells assessed as adverse effects at 12.5 to 50 mg/kg, ip qd administered for 28 days; type: organism-based; conditions: in vivo, 672 h, dose 12.5-50 mg/kg, time 28 day
[19] = Toxicity in female Balb/c nude mouse xenografted with human Olaparib-resistant HCT116 cells assessed as body weight loss at 25 to 100 mg/kg, ip qd administered for 21 days; type: organism-based, HCT-116; conditions: in vivo, 504 h, dose 25-100 mg/kg, time 21 day
[20] = Toxicity in female Balb/c nude mouse xenografted with human Olaparib-resistant HCT116 cells assessed as adverse effects at 25 to 100 mg/kg, ip qd administered for 21 days; type: organism-based, HCT-116; conditions: in vivo, 504 h, dose 25-100 mg/kg, time 21 day

Sequence of Hepatocyte growth factor receptor (P08581 whole entry): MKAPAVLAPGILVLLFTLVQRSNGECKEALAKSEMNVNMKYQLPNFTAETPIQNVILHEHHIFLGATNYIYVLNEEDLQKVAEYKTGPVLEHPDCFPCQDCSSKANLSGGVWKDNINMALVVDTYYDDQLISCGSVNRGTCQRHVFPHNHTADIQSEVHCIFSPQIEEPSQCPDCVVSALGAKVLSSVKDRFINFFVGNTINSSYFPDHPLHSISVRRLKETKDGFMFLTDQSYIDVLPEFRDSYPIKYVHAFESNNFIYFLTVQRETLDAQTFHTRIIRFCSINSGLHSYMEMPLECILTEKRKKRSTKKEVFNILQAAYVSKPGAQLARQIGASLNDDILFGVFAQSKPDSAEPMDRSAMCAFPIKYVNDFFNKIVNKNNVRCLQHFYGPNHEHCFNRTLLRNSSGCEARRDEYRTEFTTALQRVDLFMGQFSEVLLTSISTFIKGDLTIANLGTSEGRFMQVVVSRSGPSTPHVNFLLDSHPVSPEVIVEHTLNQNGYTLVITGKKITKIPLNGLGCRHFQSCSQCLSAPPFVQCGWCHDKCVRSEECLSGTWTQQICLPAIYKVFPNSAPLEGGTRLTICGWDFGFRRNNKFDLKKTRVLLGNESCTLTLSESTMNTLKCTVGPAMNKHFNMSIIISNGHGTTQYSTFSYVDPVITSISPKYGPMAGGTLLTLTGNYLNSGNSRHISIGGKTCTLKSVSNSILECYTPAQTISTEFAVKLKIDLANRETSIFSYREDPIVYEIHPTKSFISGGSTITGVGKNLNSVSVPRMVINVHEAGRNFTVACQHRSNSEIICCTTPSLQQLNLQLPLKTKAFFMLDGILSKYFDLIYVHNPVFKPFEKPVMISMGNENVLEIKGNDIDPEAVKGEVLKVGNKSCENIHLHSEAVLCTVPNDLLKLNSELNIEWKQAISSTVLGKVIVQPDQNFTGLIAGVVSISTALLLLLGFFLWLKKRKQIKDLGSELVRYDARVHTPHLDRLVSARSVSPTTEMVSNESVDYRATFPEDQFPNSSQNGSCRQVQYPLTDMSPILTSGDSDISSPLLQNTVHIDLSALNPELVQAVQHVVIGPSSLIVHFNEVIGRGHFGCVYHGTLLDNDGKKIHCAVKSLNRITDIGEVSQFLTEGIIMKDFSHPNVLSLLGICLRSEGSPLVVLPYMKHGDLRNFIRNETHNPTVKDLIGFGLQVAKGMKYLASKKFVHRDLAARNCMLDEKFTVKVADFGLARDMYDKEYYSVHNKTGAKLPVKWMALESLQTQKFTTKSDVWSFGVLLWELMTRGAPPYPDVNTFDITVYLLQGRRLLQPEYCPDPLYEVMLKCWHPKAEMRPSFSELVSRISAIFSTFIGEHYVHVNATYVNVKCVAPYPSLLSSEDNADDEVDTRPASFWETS

| Compound | pKi [1] | half-life [2] [h] | Tmax [3] [h] | Cmax [4] [ng/mL] | AUC(0-t) at 24 h [5] [ng·h/mL] | AUC(0-inf) [6] [ng·h/mL] | MRT last at 24 h [7] [h] | MRT inf [8] [h] | CL/F [9] [mL/min/kg] | inhibition in vivo at 12.5 mg/kg/day (MDA-MB-231 [10]) [%] | inhibition in vivo at 25 mg/kg/day (MDA-MB-231 [11]) [%] | inhibition in vivo at 50 mg/kg/day (MDA-MB-231 [12]) [%] | inhibition in vivo at 5 mg/kg/day [13] [%] | inhibition in vivo at 25 mg/kg/day [14] [%] | inhibition in vivo at 50 mg/kg/day [15] [%] | inhibition in vivo at 100 mg/kg/day [16] [%] | Activity [17] | Activity [18] | Activity [19] | Activity [20] |
| --- | --- | --- | --- | --- | --- | --- | --- | --- | --- | --- | --- | --- | --- | --- | --- | --- | --- | --- | --- | --- |
| O=C1NC(=O)[C@@H](c2cn3c4c(cccc24)CCC3)[C@@H]1c1c[nH]c2ccccc12 [TIVANTINIB] | 6.47 | – | – | – | – | – | – | – | – | – | – | – | – | – | – | – | – | – | – | – |
| Cl.O=C(c1cc(Cc2n[nH]c(=O)c3ccccc23)ccc1F)N1CCN(c2ccc3c(OCCn4nc(-c5cccnc5)ccc4=O)ccnc3c2)CC1 | – | 1.42 | 0.25 | 152 | 95.4 | 96.7 | 1.67 | 1.77 | 2020 | 49 | 60 | 77 | 59 | 62 | 64 | 70 | Non-Toxic | Non-Toxic | Non-Toxic | Non-Toxic |
